Here are results for one molecule from article PMC6628648, “Enabling microbial syringol conversion through structure-guided protein engineering” (Proceedings of the National Academy of Sciences of the …, 2019).

What all share (test): In vivo syringol conversion in shake flasks, 1H NMR of culture medium
Holding throughout (assay type): cell-based

The test system of experiment [1] is Pseudomonas putida KT2440 strain AM156 expressing WT GcoAB. The note with it: 20 mM glucose, 1 mM syringol. The protocol:
(§1) A standard for 2-pyrone 6-carboxylate was not available; however, we did verify the presence of 2-pyrone 6-carboxylate using LC-MS-MS (SI Appendix, Fig. S15). While small amounts of pyrogallol, 3MC, and 2-pyrone 6-carboxylate were also observed with the WT GcoAB (AM156), nearly 60% of the original syringol remained after 6 h.
(§2) Strains used for shake flask experiments were grown overnight in LB media and resuspended the next day in M9 minimal media with 20 mM glucose, as described in SI Appendix. Cells were grown until they reached an OD600 of approximately 1, at which point syringol was added at a final concentration of 1 mM. ^1H NMR spectroscopy was used to analyze syringol consumption.
(§3) 572 nm was recorded by a Varioskan Lux microplate reader (Thermo Scientific). The absorbance was compared to a standard curve with 0-100 μM H2O2 to quantify the amount of peroxide produced in the reactions.
(§4) Purified protein was buffer exchanged into 10 mM HEPES pH 7.5 and concentrated to an A280 value of 12, as measured on a NanoDrop 2000 spectrophotometer (Thermo Fisher). Crystals of GcoA were grown with 2.4 M sodium malonate and 200 mM substrate, dissolved in 40% DMSO where necessary. Crystals were cryocooled directly in liquid N2 without further addition of cryoprotectants. […]
(§5) Strains evaluated in shake flask experiments were initially grown overnight in LB media with appropriate antibiotics from glycerol stocks and resuspended the following day in M9 minimal media (6.78 g/L Na2HPO4, 3 g/L KH2PO4, 0.5 g/L NaCl, 1 g/L NH4Cl, 2 mM MgSO4, 100 µM CaCl2, and 40 µM FeSO4 . 7H2O) supplemented with 20 mM glucose (Sigma-Aldrich) and […] kanamycin.
(§6) Cells were grown until they reached an OD600 of 1, at which point syringol (Sigma-Aldrich) was added to a final concentration of 1 mM. Syringol concentrations were quantified using any 1H NMR, and spectra were collected using a Bruker Avance III HD 400 MHz Spectrometer and analyzed using Bruker TopSpin3.7 software. For identification of unknown compounds, samples were analyzed via LC-MS-MS using the Acquity UPLC system (Waters Inc.). […]

Experiment [2] concerns Pseudomonas putida KT2440 strain AM155 lacking GcoAB. As to conditions: AM155 (does not express GcoA), 1 mM syringol. The method, then: as §1, §2, §3, §4, §5, §6
Experiment [3] relates to Pseudomonas putida KT2440 strain AM157 expressing GcoA-F169A and GcoB. The note with it: 20 mM glucose, 1 mM syringol. The method, then: as §1, §2, §3, §4, §5, §6

As to `COc1cccc(OC)c1O` [syringol, 2,6-dimethoxyphenol], in experiment [1], the “original syringol remaining after 6 h” value is on record as about 60%. Moreover, in experiment [2], the “syringol conversion after 6 h” value is on record as “no conversion”. In addition, the “syringol 1H NMR peaks in culture medium after 6 h” value in experiment [3] is reported as “completely disappeared”.
